Tested on: bovine cardiac myofibrils
Test: Myofibril assay: PK/LDH-coupled steady-state ATPase activity of skinned bovine cardiac myofibrils
Type: biochemical
Conditions: Ca2+ activating to 75% of maximal rate
How it was run: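 Steady-state ATPase of detergent-skinned bovine left-ventricular myofibrils (1 mg/mL), PK/LDH-coupled NADH read at 340 nm, in PIPES/MgCl2 buffer pH 6.8 with 50 μM ATP, 0.6 mM EGTA and CaCl2 set for 50% or 75% activation. Inhibition of activity measured.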

SMILES | CDMF75 IC15 [µM]
CC(C)N1CC(=O)N(Cc2ccc(Cl)cc2)C2(CN(c3ncccn3)C2)C1=O [Compound 11, 5-(4-chlorobenzyl)-8-isopropyl-2-(pyrimidin-2-yl)-2,5,8-triazaspiro-[3.5]nonane-6,9-dione] | 17.4
CNc1cccc(N2CC3(C2)C(=O)N(c2ccc(C#N)cc2F)CC(=O)N3Cc2ccc(C(F)(F)F)cc2)c1C(=O)OC [Compound 544, methyl 2-(8-(4-cyano-2-fluorophenyl)-6,9-dioxo-5-(4-(trifluoromethyl)benzyl)-2,5,8-triazaspiro[3.5]nonan-2-yl)-6-(methylamino)-benzoate] | 0.3
O=C1C(C2COC2)N(Cc2ccc(F)cc2)C(=O)CN1c1ccc(Br)cc1F (centres unmarked) [Compound 700, 1-(4-bromo-2-fluoro-phenyl)-4-(4-fluorobenzyl)-3-(oxetan-3-yl)piperazine-2,5-dione] | 3.4
CNC(=O)N1CC2(C1)C(=O)N(c1ccc(OC(F)F)c(F)c1)CC(=O)N2Cc1ccc(C(F)(F)F)cc1 [Compound 171, 8-(4-(difluoromethoxy)-3-fluorophenyl)-N-methyl-6,9-dioxo-5-(4-(trifluoromethyl)benzyl)-2,5/8-triazaspiro[3.5]-nonane-2-carboxamide] | 2.0
COC(=O)C12CC(C3C(=O)N(c4ncc(Cl)cc4F)CC(=O)N3Cc3ccc(C)cc3)(C1)C2 (centres unmarked) [Compound 781, methyl 3-(4-(5-chloro-3-fluoropyridin-2-yl)-1-(4-methylbenzyl)-3,6-dioxopiperazin-2-yl)bicyclo[1.1.1]pentane-1-carboxylate] | 4.0
CNC(=O)N1CC2(C1)C(=O)N(c1ccc(C#N)nc1)CC(=O)N2Cc1ccc(C(F)(F)F)cc1 [Compound 147, 8-(6-cyanopyridin-3-yl)-N-methyl-6,9-dioxo-5-(4-(trifluoromethyl)benzyl)-2,5,8-triazaspiro[3.5]-nonane-2-carboxamide] | 8.1
CNC(=O)c1ccccc1N1CC2(C1)C(=O)N(c1ccc(C#N)cc1F)CC(=O)N2Cc1ccc(C(F)(F)F)cc1 [Compound 537, 2-(8-(4-cyano-2-fluorophenyl)-6,9-dioxo-5-(4-(trifluoromethyl)benzyl)-2,5,8-triazaspiro[3.5]nonan-2-yl)-N-methylbenzamide] | 0.3
CC(C)N1CC(=O)N(Cc2ccc(C(F)(F)F)cc2)C2(CCN(C(=O)NC3CC3)C2)C1=O (centres unmarked) [Compound 118, N-cyclopropyl-9-isopropyl-7,10-dioxo-6-(4-(trifluoromethyl)benzyl)-2,6,9-triazaspiro[4.5]decane-2-carboxamide] | 14.0
CC(C)N1CC(=O)N(Cc2ccc(Cl)cc2)C2(CN(c3cncs3)C2)C1=O [Compound 33, 5-(4-chlorobenzyl)-8-isopropyl-2-(thiazol-5-yl)-2,5,8-triazaspiro[3.5]-nonane-6,9-dione] | 5.4
CC(C)N1CC(=O)N(Cc2ccc(C(F)(F)F)cc2)C2(CCN(c3cc(C(N)=O)ccn3)C2)C1=O (centres unmarked) [Compound 89, 2-(9-isopropyl-7,10-dioxo-6-(4-(trifluoromethyl)-benzyl)-2,6,9-triazaspiro[4.5]decan-2-yl)isonicotinamide] | 3.3
COc1cnc(N2CC(=O)N(Cc3ccc(Cl)cc3)C(C3COC3)C2=O)c(F)c1 (centres unmarked) [Compound 769, 4-(4-chlorobenzyl)-1-(3-fluoro-5-methoxypyridin-2-yl)-3-(oxetan-3-yl)-piperazine-2,5-dione] | 7.9
CC(C)N1CC(=O)N(Cc2ccc(C(F)(F)F)cc2)C2(CCN(c3cc(C#N)ccn3)C2)C1=O (centres unmarked) [Compound 88, 2-(9-isopropyl-7,10-dioxo-6-(4-(trifluoromethyl)-benzyl)-2,6,9-triazaspiro[4.5]decan-2-yl)isonicotinonitrile] | 4.0
Cc1cc(CN2C(=O)CN(c3ncc(Cl)cc3F)C(=O)C2C2COC2)ccc1F (centres unmarked) [Compound 667, 1-(5-chloro-3-fluoropyridin-2-yl)-4-(4-fluoro-3-methyl-benzyl)-3-(oxetan-3-yl)-piperazine-2,5-dione] | 1.1
CC(C)N1CC(=O)N(Cc2ccc(C(F)(F)F)cc2)C2(CCN(C(=O)Nc3ccncc3)C2)C1=O (centres unmarked) [Compound 111, 9-isopropyl-7,10-dioxo-N-(pyridin-4-yl)-6-(4-(trifluoromethyl)benzyl)-2,6,9-triazaspiro[4.5]-decane-2-carboxamide] | 19.8
O=C1C(C2CC(O)C2)N(Cc2ccc(C(F)(F)F)cc2)C(=O)CN1c1ncc(Cl)cc1F (centres unmarked) [Compound 740, 1-(5-chloro-3-fluoropyridin-2-yl)-3-(3-hydroxycyclobutyl)-4-(4-(trifluoromethyl)benzyl)piperazine-2,5-dione] | 2.3
CC(C)N1CC(=O)N(Cc2ccc(Cl)cc2)C2(CN(c3ccn(C)c(=O)c3)C2)C1=O [Compound 42, 5-(4-chlorobenzyl)-8-isopropyl-2-(1-methyl-2-oxo-1,2-dihydropyridin-4-yl)-2,5,8-triazaspiro-[3.5]nonane-6,9-dione] | 5.4

SMILES | CDMF75 IC15 [µM]
CNC(=O)N1CC(C2C(=O)N(c3ncc(Cl)cc3F)CC(=O)N2Cc2ccc(C(F)(F)F)cc2)C1 (centres unmarked) [Compound 641, 3-(4-(5-chloro-3-fluoro-pyridin-2-yl)-3,6-dioxo-1-(4-(trifluoromethyl)-benzyl)piperazin-2-yl)-N-methylazetidine-1-carboxamide] | 12.2
CCC(=O)N1CC2(C1)C(=O)N(c1ccc(C#N)cc1)CC(=O)N2Cc1ccc(C(F)(F)F)cc1 [Compound 187, 4-(6,9-dioxo-2-propionyl-5-(4-(trifluoromethyl)benzyl)-2,5,8-triazaspiro[3.5]nonan-8-yl)benzonitrile] | 15.9
N#Cc1ccc(N2CC(=O)N(Cc3ccc(Cl)cc3)C3(CCN(C(=O)C4CCC4)C3)C2=O)c(F)c1 (stereo in doubt) [Compound 212, (S)-4-(6-(4-chlorobenzyl)-2-(cyclobutanecarbonyl)-7,10-dioxo-2,6,9-triazaspiro[4.5]decan-9-yl)-3-fluorobenzonitrile] | 0.9
CC(C)N1CC(=O)N(Cc2ccc(Cl)cc2)C2(CN(c3cnn(C)c3)C2)C1=O [Compound 21, 5-(4-chlorobenzyl)-8-isopropyl-2-(1-methyl-1H-pyrazol-4-yl)-2,5,8-triazaspiro[3.5]nonane-6,9-dione] | 2.6
Cc1ccc(N2CCC3(C2)C(=O)N(C(C)C)CC(=O)N3Cc2ccc(Cl)cc2)nc1 (centres unmarked) [Compound 75, 6-(4-chlorobenzyl)-9-isopropyl-2-(5-methylpyridin-2-yl)-2,6,9-triazaspiro[4.5]-decane-7,10-dione] | 1.1
CC(C)N1CC(=O)N(Cc2ccc(Cl)cc2)C2(CCN(C(N)=O)C2)C1=O (single isomer, unassigned) [Compound 367A, 6-[(4-chlorophenyl)methyl]-7,10-dioxo-9-(propan-2-yl)-2,6,9-triazaspiro[4.5]decane-2-carboxamide] | 8.8
CNC(=O)N1CC2(C1)C(=O)N(c1ccc(Cl)c(C)c1)CC(=O)N2Cc1ccc(C(F)(F)F)cc1 [Compound 166, 8-(4-chloro-3-methyl-phenyl)-N-methyl-6,9-dioxo-5-(4-(trifluoromethyl)-benzyl)-2,5,8-triazaspiro-[3.5]nonane-2-carboxamide] | 2.4
CC(C)N1CC(=O)N(Cc2ccc(Cl)cc2)C2(CN(c3ccncn3)C2)C1=O [Compound 19, 5-(4-chlorobenzyl)-8-isopropyl-2-(pyrimidin-4-yl)-2,5,8-triazaspiro-[3.5]nonane-6,9-dione] | 5.7
Cc1cc(Cl)cnc1N1CC(=O)N(Cc2ccc(Cl)cc2)C2(CN(c3ccc(F)cn3)C2)C1=O [Compound 884, 8-(5-chloro-3-methyl-pyridin-2-yl)-5-(4-chloro-benzyl)-2-(5-fluoropyridin-2-yl)-2,5,8-triazaspiro[3.5]-nonane-6,9-dione] | 0.5
CC(C)N1CC(=O)N(Cc2ccc(Cl)cc2)C2(CC(=O)N(c3ccccc3)C2)C1=O (centres unmarked) [Compound 331, 6-(4-chlorobenzyl)-9-isopropyl-2-phenyl-2,6,9-triazaspiro[4.5]decane-3,7,10-trione] | 30.9
Cc1ccc(CN2C(=O)CN(c3ncc(Cl)cc3F)C(=O)C23CC2(CN(C=O)C2)C3)cc1 [Compound 830, 10-(5-chloro-3-fluoro-pyridin-2-yl)-7-(4-methyl-benzyl)-8,11-dioxo-2,7,10-triazadispiro[3.1.56.14]-dodecane-2-carbaldehyde] | 1.75
NC(=O)[C@H]1C[C@]2(C1)C(=O)N(c1ncc(Cl)cc1F)CC(=O)N2Cc1ccc(C(F)F)cc1 (single isomer, unassigned) [Compound 875A, 8-(5-chloro-3-fluoropyridin-2-yl)-5-(4-(difluoromethyl)benzyl)-6,9-dioxo-5,8-diazaspiro[3.5]nonane-2-carboxamide] | 2.2
NC(=O)C12CC(C3C(=O)N(c4ncc(Cl)cc4F)CC(=O)N3Cc3ccc(Cl)cc3)(C1)C2 (centres unmarked) [Compound 835, 3-(4-(5-chloro-3-fluoropyridin-2-yl)-1-(4-chlorobenzyl)-3,6-dioxopiperazin-2-yl)bicyclo[1.1.1]pentane-1-carboxamide] | 1.64
O=C1C(C2COC2)N(Cc2ccc(F)c(F)c2)C(=O)CN1c1ncc(Cl)cc1F (centres unmarked) [Compound 647, 1-(5-chloro-3-fluoropyridin-2-yl)-4-(3,4-difluorobenzyl)-3-(oxetan-3-yl)piperazine-2,5-dione] | 2.1
O=C1C(C2CC(O)C2)N(Cc2ccc(C(F)(F)F)cc2)C(=O)CN1c1ncc(Cl)cc1F (single isomer, unassigned) [Compound 740C, 1-(5-chloro-3-fluoropyridin-2-yl)-3-(3-hydroxycyclobutyl)-4-(4-(trifluoromethyl)benzyl)piperazine-2,5-dione] | >39
CC(=O)N1CC2(C1)C(=O)N(c1ncc(C#N)cc1C)CC(=O)N2Cc1ccc(C(F)(F)F)cc1 [Compound 529, 6-(2-acetyl-6,9-dioxo-5-(4-(trifluoromethyl)benzyl)-2,5,8-triazaspiro[3.5]nonan-8-yl)-5-methylnicotinonitrile] | 5.5

Reference: patent publication US11414424B2, “Cardiac sarcomere inhibitors” (Cytokinetics, Inc., priority 2018, dated 2022)
